Among the data in ChEMBL document CHEMBL1149225, “Synthesis and evaluation of substituted 4-alkoxy-2-aminopyridines as novel neuropeptide Y1 receptor antagonists” (Bioorg Med Chem Lett, 2004) are IC50 values, retold here.

The target in assay [1] is T1, Neuropeptide Y receptor type 1 (Homo sapiens, UniProt P25929).
T1 sequence (P25929 whole entry): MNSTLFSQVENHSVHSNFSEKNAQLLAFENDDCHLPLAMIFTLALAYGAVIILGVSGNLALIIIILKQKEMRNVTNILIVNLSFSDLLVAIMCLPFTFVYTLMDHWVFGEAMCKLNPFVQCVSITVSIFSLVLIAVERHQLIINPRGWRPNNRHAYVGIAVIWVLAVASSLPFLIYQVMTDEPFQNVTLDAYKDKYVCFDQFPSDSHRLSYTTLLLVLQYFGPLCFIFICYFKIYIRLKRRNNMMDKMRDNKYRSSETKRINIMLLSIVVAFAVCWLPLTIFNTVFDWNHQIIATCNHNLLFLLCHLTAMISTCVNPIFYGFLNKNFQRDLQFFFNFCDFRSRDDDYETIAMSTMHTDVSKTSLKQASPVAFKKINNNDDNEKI
In words: Binding affinity against human recombinant NPY Y1 receptor in CHO/dhFr- cell membranes using [125I]PYY.

For assay [2], the system named is CHO. In words: Inhibitory concentration against 1 nM NPY induced [Ca2+] increase in CHO/dhFr- cells expressing recombinant human Y1 receptor. The settings on record: Cricetulus griseus. Format: functional, cell-based.

Turning to `CC/C=C\CCOc1cc(CCc2nc(C)c(CC)s2)nc(NCc2cc(Cl)cc(NC(=O)OC(C)C)c2)c1`, the IC50 (as a rule, the concentration at which inhibition is half-maximal) in assay [1] worked out at 4.7 nM; in assay [2] it was 64 nM.
Turning to `CCc1sc(CCc2cc(OC3CCCC3)cc(NCc3cc(Cl)cc(NC(=O)OC(C)C)c3)n2)nc1C`, the 50% inhibitory concentration (IC50) in assay [1] amounted to 11 nM.
Still for that read-out and setting: for `CCc1sc(CCc2cc(OC(C)C)cc(NCc3cc(Cl)cc(NC(=O)OC(C)C)c3)n2)nc1C` the value was 12 nM.
Same read-out and setting: for `CCCOc1cc(CCc2nc(C)c(CC)s2)nc(NCc2cc(Cl)cc(NC(=O)OC(C)C)c2)c1` the value was 17 nM.
For `CCc1sc(CCc2cc(OC(C)COC)cc(NCc3cc(Cl)cc(NC(=O)OC(C)C)c3)n2)nc1C` (stereo not drawn), the half-inhibitory concentration (IC50) amounted to 8.4 nM in assay [1] and 59 nM in assay [2].
As to `CCc1sc(CCc2cc(OCC(C)(C)C)cc(NCc3cc(Cl)cc(NC(=O)OC(C)C)c3)n2)nc1C`, the IC50 in assay [1] was 55 nM.
For `CCc1sc(CCc2cc(OCc3ccccc3)cc(NCc3cc(Cl)cc(NC(=O)OC(C)C)c3)n2)nc1C`, the IC50 in assay [1] amounted to 237 nM.
Same read-out and setting: for `CCCCCOc1cc(CCc2nc(C)c(CC)s2)nc(NCc2cc(Cl)cc(NC(=O)OC(C)C)c2)c1` the value was 35 nM; for `CCCCCCCOc1cc(CCc2nc(C)c(CC)s2)nc(NCc2cc(Cl)cc(NC(=O)OC(C)C)c2)c1`, 72 nM; for `CCc1sc(CCc2cc(OCCc3ccccc3)cc(NCc3cc(Cl)cc(NC(=O)OC(C)C)c3)n2)nc1C`, 30 nM.
The same measure, in the same setting: for `CCOc1cc(CCc2nc(C)c(CC)s2)nc(NCc2cc(Cl)cc(NC(=O)OC(C)C)c2)c1` the value was 33 nM; for `CCCCOc1cc(CCc2nc(C)c(CC)s2)nc(NCc2cc(Cl)cc(NC(=O)OC(C)C)c2)c1`, 16 nM.
On the same count and under the same terms, next, `CCc1sc(CCc2cc(OCCCc3ccccc3)cc(NCc3cc(Cl)cc(NC(=O)OC(C)C)c3)n2)nc1C`: 20 nM.
Take `CCc1sc(CCc2cc(OC3CCCCC3)cc(NCc3cc(Cl)cc(NC(=O)OC(C)C)c3)n2)nc1C`: the IC50 in assay [1] amounted to 29 nM.
`CCc1sc(CCc2cc(OC)cc(NCc3cc(Cl)cc(NC(=O)OC(C)C)c3)n2)nc1C`: the IC50 in assay [1] was 234 nM.
As to `CCc1sc(CCc2cc(N3CCOCC3)cc(NCc3cc(Cl)cc(NC(=O)OC(C)C)c3)n2)nc1C`, the values for the half-inhibitory concentration (IC50) in assay [1] and in assay [2] were 1.4 nM and 2.9 nM, respectively.
For `CCc1sc(CCc2cc(OC(CC)CC)cc(NCc3cc(Cl)cc(NC(=O)OC(C)C)c3)n2)nc1C` the same measures were 5.5 nM and 33 nM.
`CCc1sc(CCc2cc(OCCCc3cccnc3)cc(NCc3cc(Cl)cc(NC(=O)OC(C)C)c3)n2)nc1C`: the IC50 in assay [1] was found to be 6.5 nM; in assay [2], 46 nM.
As to `CCCCCCOc1cc(CCc2nc(C)c(CC)s2)nc(NCc2cc(Cl)cc(NC(=O)OC(C)C)c2)c1`, in assay [1], the IC50 amounted to 63 nM.
Regarding `CCc1sc(CCc2cc(OC3CCOCC3)cc(NCc3cc(Cl)cc(NC(=O)OC(C)C)c3)n2)nc1C`, the 50% inhibitory concentration (IC50) in assay [1] is 4.4 nM; in assay [2], 42 nM.
Turning to `CCc1sc(CCc2cc(OC3CCC3)cc(NCc3cc(Cl)cc(NC(=O)OC(C)C)c3)n2)nc1C`, the IC50 in assay [1] came to 11 nM.
On the same count and under the same terms, for `CCc1sc(CCc2cc(OCC3(C)CC3)cc(NCc3cc(Cl)cc(NC(=O)OC(C)C)c3)n2)nc1C` the value was 17 nM.
